In general, pIC50 refers to the IC50 on a negative log10 scale, so that one unit is a factor of ten.

pIC50: −log10 of the molar value. Active and inactive are the calls of the source. The calls are words filed in the database; no cut-off is given here.

Assay [1] concerns the target T1, NPC1-like intracellular cholesterol transporter 1 (Homo sapiens, UniProt Q9UHC9).
T1 sequence (Q9UHC9 whole entry): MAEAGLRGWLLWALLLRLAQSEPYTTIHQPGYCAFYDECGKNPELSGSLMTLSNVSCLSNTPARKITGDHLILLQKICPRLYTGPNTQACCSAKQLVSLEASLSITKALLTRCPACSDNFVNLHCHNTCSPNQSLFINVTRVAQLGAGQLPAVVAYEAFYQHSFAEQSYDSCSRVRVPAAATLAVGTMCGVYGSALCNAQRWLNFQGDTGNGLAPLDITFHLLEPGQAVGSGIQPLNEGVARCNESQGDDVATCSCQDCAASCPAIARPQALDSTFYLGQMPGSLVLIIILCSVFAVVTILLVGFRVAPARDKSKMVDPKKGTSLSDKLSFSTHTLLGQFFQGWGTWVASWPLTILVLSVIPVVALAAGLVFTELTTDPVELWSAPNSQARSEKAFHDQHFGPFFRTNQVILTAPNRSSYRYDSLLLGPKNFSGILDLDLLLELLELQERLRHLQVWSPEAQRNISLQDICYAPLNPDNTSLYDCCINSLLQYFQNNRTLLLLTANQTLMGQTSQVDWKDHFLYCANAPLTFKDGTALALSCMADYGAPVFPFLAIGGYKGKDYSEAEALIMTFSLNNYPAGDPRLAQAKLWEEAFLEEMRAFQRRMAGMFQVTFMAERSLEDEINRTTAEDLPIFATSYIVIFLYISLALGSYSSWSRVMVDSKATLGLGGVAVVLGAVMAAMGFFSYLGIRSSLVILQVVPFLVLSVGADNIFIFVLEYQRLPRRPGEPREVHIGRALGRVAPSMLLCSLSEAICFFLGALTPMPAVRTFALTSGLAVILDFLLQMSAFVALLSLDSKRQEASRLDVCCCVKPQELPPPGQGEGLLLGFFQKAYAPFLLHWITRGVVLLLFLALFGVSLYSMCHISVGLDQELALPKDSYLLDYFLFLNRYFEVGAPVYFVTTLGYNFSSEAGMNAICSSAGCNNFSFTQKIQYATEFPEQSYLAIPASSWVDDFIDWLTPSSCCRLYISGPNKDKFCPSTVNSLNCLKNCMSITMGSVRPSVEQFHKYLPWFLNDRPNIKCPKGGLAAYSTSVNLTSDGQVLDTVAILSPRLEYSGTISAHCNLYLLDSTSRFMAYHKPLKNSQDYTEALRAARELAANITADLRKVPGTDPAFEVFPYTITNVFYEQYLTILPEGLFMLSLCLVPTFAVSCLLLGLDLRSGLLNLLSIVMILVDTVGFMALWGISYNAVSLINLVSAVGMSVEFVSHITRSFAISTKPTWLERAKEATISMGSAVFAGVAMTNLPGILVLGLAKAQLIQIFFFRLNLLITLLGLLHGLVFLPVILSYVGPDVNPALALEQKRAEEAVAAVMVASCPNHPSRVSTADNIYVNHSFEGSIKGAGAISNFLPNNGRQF
Nature of the assay: Displacement of [35S](2S,3S,4S,5R,6S)-6-(4-((2S,3R)-3-((S)-3-(4-fluorophenyl)-3-hydroxypropyl)-1-(4-(3-(methylsulfonamido)prop-1-ynyl)phenyl)-4-oxoazetidin-2-yl)phenoxy)-3,4,5-trihydroxytetrahydro-2H-pyran-2-carboxylic acid from human recombinant NPC1L1 expressed in HEK293 cells. The assay is classed as cell-based.

Assay [2] relates to Mus musculus. Nature of the assay: Inhibition of plasma [3H]cholesterol absorption in C57BL/6 mouse at 0.2 ml in 0.25% methocel suspension, po dosed 30 mins before [3H]cholesterol administration measured after 1.5 to 5 hrs. In kind it is functional, organism-based.
For assay [3], the system named is Mus musculus. Nature of the assay: Inhibition of liver [3H]cholesterol absorption in C57BL/6 mouse at 0.2 ml in 0.25% methocel suspension, po dosed 30 mins before [3H]cholesterol administration measured after 1.5 to 5 hrs. The assay is classed as functional, organism-based.

For the compound `CS(=O)(=O)NCC#CN1C(=O)[C@H](CC[C@H](O)c2ccc(F)cc2)[C@H]1c1ccc(O[C@@H]2O[C@H](C(=O)O)[C@@H](O)[C@H](O)[C@H]2O)cc1`, the pIC50 in assay [1] is 8.15.

For `CC(C)(C)c1ccc(C(=O)N2CCC3(CC2)C(=O)N(CC(=O)N2CCCCC2)CN3c2ccccc2)cc1`, the inhibition result in assay [2] and in assay [3] was “inactive” in each case. For the same compound, the pIC50 in assay [1] was 5.60.

As to `O=C(O)[C@H]1O[C@@H](Oc2ccc([C@@H]3[C@@H](CC[C@H](O)c4ccc(F)cc4)C(=O)N3c3ccc(F)cc3)cc2)[C@H](O)[C@@H](O)[C@@H]1O`, the negative-log IC50 (pIC50) in assay [1] is 6.52.

With `O=C([C@@H]1C[C@@H](c2ccccc2)CN1C(=O)c1ccccc1)N1CCC2(C=Cc3ccccc32)CC1`, in assay [1], the negative logarithm of the IC50 (pIC50) is 6.18.

The values above are taken from ChEMBL document CHEMBL1136903, “Spiroimidazolidinone NPC1L1 inhibitors. 1: Discovery by 3D-similarity-based virtual screening” (Bioorg Med Chem Lett, 2009).
